Read-outs that look alike come from different tables or passages of the source.
What was measured:
[1] = Stability of the same analytes in serum samples, with and without 5% DMSO (Table 3); assay type: physicochemical
Description: Table 3 is a test corresponding to the test of Table 2, but where the ten samples to be tested were serum samples rather than plasma samples.

[2] = Storage stability of analytes in serum sample without stabilizer (background statement); assay type: physicochemical; details: serum sample
Description: In connection with said determinations and sample handling the poor stability of gastrin-17 has proven to be a problem, due to the fact that it decomposes rapidly in the sample. […] This is in contrast to pepsinogen I and II, which retain their activity at room temperature for many days, and Helicobacter pylori antibodies, which survive for at least three days under refrigerator conditions.

[3] = Preservation of gastrin-17 in 5% DMSO/serum or plasma solutions; assay type: physicochemical; details: 5% (vol./vol.) DMSO/serum or plasma solutions, even at room temperature
[4] = for gastrin-17 concentration, Avg.: average of days 0-3
[5] = room temperature
Description: The effect of adding DMSO was tested on pepsinogen I, pepsinogen II, Helicobacter pylori antibodies and gastrin-17. The results are indicated at day 0 and day 3.

Substance: gastrin-17 [Gastrin 17]
- Gastrin 17 concentration ([1]; serum sample PL411s, 0% DMSO): 33.4 pmol/L
- Gastrin 17 concentration ([1]; serum sample PL411s, 5% DMSO): 32.5 pmol/L
- Gastrin 17 concentration ([1]; serum sample PL420b, 0% DMSO): 24.1 pmol/L
- Gastrin 17 concentration ([1]; serum sample PL420b, 5% DMSO): 20.1 pmol/L
- Gastrin 17 concentration ([1]; serum sample PL426s, 0% DMSO): 1.1 pmol/L
- Gastrin 17 concentration ([1]; serum sample PL426s, 5% DMSO): 1.9 pmol/L
- Gastrin 17 concentration ([1]; serum sample PL438s, 0% DMSO): 9.3 pmol/L
- Gastrin 17 concentration ([1]; serum sample PL438s, 5% DMSO): 9.8 pmol/L
- Gastrin 17 concentration ([1]; serum sample PL439s, 0% DMSO): 7.4 pmol/L
- Gastrin 17 concentration ([1]; serum sample PL439s, 5% DMSO): 8.5 pmol/L
- Gastrin 17 concentration ([1]; serum sample PL447b, 0% DMSO): 18.2 pmol/L
- Gastrin 17 concentration ([1]; serum sample PL447b, 5% DMSO): 21.7 pmol/L
- Gastrin 17 concentration ([1]; serum sample PL454s, 0% DMSO): 4.4 pmol/L
- Gastrin 17 concentration ([1]; serum sample PL454s, 5% DMSO): 5.6 pmol/L
- Gastrin 17 concentration ([1]; serum sample PL455b, 0% DMSO): 15.6 pmol/L
- Gastrin 17 concentration ([1]; serum sample PL455b, 5% DMSO): 17.6 pmol/L
- Gastrin 17 concentration ([1]; serum sample PL457b, 0% DMSO): 3.3 pmol/L
- Gastrin 17 concentration ([1]; serum sample PL457b, 5% DMSO): 6.0 pmol/L
- Gastrin 17 concentration ([1]; serum sample PL458s, 0% DMSO): 5.4 pmol/L
- Gastrin 17 concentration ([1]; serum sample PL458s, 5% DMSO): 2.2 pmol/L
- activity in samples with added 5% (vol./vol.) of DMSO ([1]; serum samples): generally retained activity
- state of the analyte in a serum sample after a day ([2]; after a day, refrigerating conditions): degraded completely
- time after which the concentration in a serum sample starts to decrease clearly ([2]; no stabilizer): three
- time for which gastrin-17 was preserved [3]: at least three
- gastrin-17 concentration, Avg. ([4]; EDTA-plasma sample PL459S, 0% DMSO): 4.1 pmol/L
- gastrin-17 concentration ([4]; EDTA-plasma sample PL459S, 0% DMSO, day 0): 8.5 pmol/L
- gastrin-17 concentration ([4]; EDTA-plasma sample PL459S, 0% DMSO, day 1): 3.6 pmol/L
- gastrin-17 concentration ([4]; EDTA-plasma sample PL459S, 0% DMSO, day 2): 2.7 pmol/L
- gastrin-17 concentration ([4]; EDTA-plasma sample PL459S, 0% DMSO, day 3): 1.5 pmol/L
- gastrin-17 concentration, Avg. ([4]; EDTA-plasma sample PL459S, 5% DMSO): 5.6 pmol/L
- gastrin-17 concentration ([4]; EDTA-plasma sample PL459S, 5% DMSO, day 0): 6.3 pmol/L
- gastrin-17 concentration ([4]; EDTA-plasma sample PL459S, 5% DMSO, day 1): 5.4 pmol/L
- gastrin-17 concentration ([4]; EDTA-plasma sample PL459S, 5% DMSO, day 2): 5.2 pmol/L
- gastrin-17 concentration ([4]; EDTA-plasma sample PL459S, 5% DMSO, day 3): 5.4 pmol/L
- gastrin-17 concentration, Avg. ([4]; EDTA-plasma sample PL460s, 0% DMSO): 6.0 pmol/L
- gastrin-17 concentration ([4]; EDTA-plasma sample PL460s, 0% DMSO, day 0): 7.9 pmol/L
- gastrin-17 concentration ([4]; EDTA-plasma sample PL460s, 0% DMSO, day 1): 5.8 pmol/L
- gastrin-17 concentration ([4]; EDTA-plasma sample PL460s, 0% DMSO, day 2): 5.8 pmol/L
- gastrin-17 concentration ([4]; EDTA-plasma sample PL460s, 0% DMSO, day 3): 4.6 pmol/L
- gastrin-17 concentration, Avg. ([4]; EDTA-plasma sample PL460s, 5% DMSO): 6.0 pmol/L
- gastrin-17 concentration ([4]; EDTA-plasma sample PL460s, 5% DMSO, day 0): 6.3 pmol/L
- gastrin-17 concentration ([4]; EDTA-plasma sample PL460s, 5% DMSO, day 1): 5.5 pmol/L
- gastrin-17 concentration ([4]; EDTA-plasma sample PL460s, 5% DMSO, day 2): 6.1 pmol/L
- gastrin-17 concentration ([4]; EDTA-plasma sample PL460s, 5% DMSO, day 3): 6.0 pmol/L
- gastrin-17 concentration, Avg. ([4]; EDTA-plasma sample PL461s, 0% DMSO): 12.4 pmol/L
- gastrin-17 concentration ([4]; EDTA-plasma sample PL461s, 0% DMSO, day 0): 26.0 pmol/L
- gastrin-17 concentration ([4]; EDTA-plasma sample PL461s, 0% DMSO, day 1): 8.7 pmol/L
- gastrin-17 concentration ([4]; EDTA-plasma sample PL461s, 0% DMSO, day 2): 8.5 pmol/L
- gastrin-17 concentration ([4]; EDTA-plasma sample PL461s, 0% DMSO, day 3): 6.1 pmol/L
- gastrin-17 concentration, Avg. ([4]; EDTA-plasma sample PL461s, 5% DMSO): 21.8 pmol/L
- gastrin-17 concentration ([4]; EDTA-plasma sample PL461s, 5% DMSO, day 0): 24.3 pmol/L
- gastrin-17 concentration ([4]; EDTA-plasma sample PL461s, 5% DMSO, day 1): 21.6 pmol/L
- gastrin-17 concentration ([4]; EDTA-plasma sample PL461s, 5% DMSO, day 2): 19.9 pmol/L
- gastrin-17 concentration ([4]; EDTA-plasma sample PL461s, 5% DMSO, day 3): 21.2 pmol/L
- Gastrin 17 concentration ([5]; EDTA-plasma sample PL466s, 0% DMSO, day 0): 7.6 pmol/L
- Gastrin 17 concentration ([5]; EDTA-plasma sample PL466s, 0% DMSO, day 3): 1.6 pmol/L
- Gastrin 17 concentration ([5]; EDTA-plasma sample PL466s, 5% DMSO, day 0): 7.8 pmol/L
- Gastrin 17 concentration ([5]; EDTA-plasma sample PL466s, 5% DMSO, day 3): 6.9 pmol/L
- Gastrin 17 concentration ([5]; EDTA-plasma sample PL467s, 0% DMSO, day 0): 5.3 pmol/L
- Gastrin 17 concentration ([5]; EDTA-plasma sample PL467s, 0% DMSO, day 3): 2.9 pmol/L
- Gastrin 17 concentration ([5]; EDTA-plasma sample PL467s, 5% DMSO, day 0): 4.4 pmol/L
- Gastrin 17 concentration ([5]; EDTA-plasma sample PL467s, 5% DMSO, day 3): 4.5 pmol/L
- Gastrin 17 concentration ([5]; EDTA-plasma sample PL471s, 0% DMSO, day 0): 1.3 pmol/L
- Gastrin 17 concentration ([5]; EDTA-plasma sample PL471s, 0% DMSO, day 3): 0.2 pmol/L
- Gastrin 17 concentration ([5]; EDTA-plasma sample PL471s, 5% DMSO, day 0): 1.7 pmol/L
- Gastrin 17 concentration ([5]; EDTA-plasma sample PL471s, 5% DMSO, day 3): 1.4 pmol/L
- Gastrin 17 concentration ([5]; EDTA-plasma sample PL472s, 0% DMSO, day 0): 20 pmol/L
- Gastrin 17 concentration ([5]; EDTA-plasma sample PL472s, 0% DMSO, day 3): 2.9 pmol/L
- Gastrin 17 concentration ([5]; EDTA-plasma sample PL472s, 5% DMSO, day 0): 21 pmol/L
- Gastrin 17 concentration ([5]; EDTA-plasma sample PL472s, 5% DMSO, day 3): 14.3 pmol/L
- Gastrin 17 concentration ([5]; EDTA-plasma sample PL473s, 0% DMSO, day 0): 3.7 pmol/L
- Gastrin 17 concentration ([5]; EDTA-plasma sample PL473s, 0% DMSO, day 3): 0.6 pmol/L
- Gastrin 17 concentration ([5]; EDTA-plasma sample PL473s, 5% DMSO, day 0): 3.8 pmol/L
- Gastrin 17 concentration ([5]; EDTA-plasma sample PL473s, 5% DMSO, day 3): 3.4 pmol/L

Reference: patent US20070243558A1, “Peptide Stabilization” (priority 2004, published 2007)
